Source: patent US20110165266A1 (priority 2008, published 2011)

System: ASLV-A vector RCASBP(A)-AP
Format: cell-based, avian sarcoma and leukosis virus (ASLV-A)

Compound: [O-][Cl+2]([O-])O [chlorate]
- influence on infection by ASLV-A vector: did not influence infection
